Among the data in the RepoRT retention time repository (doi:10.1021/acs.analchem.1c00972) are LC retention time values, retold here.

A short description of data set [1]: RP, Waters ACQUITY UPLC BEH C18, 100 × 1 mm, 1.7 µm, 50 °C, 0.3 mL/min, estimated dead time 0.17 min; A: water + 10 mM ammonium bicarbonate; B: 10% water + 90% methanol + 10 mM ammonium bicarbonate; gradient (min/%B) 0/0 15/100 21/100 22/0 30/0. Conditions: stereoisomer not certain.
Data set [2] in a line: RP, Waters ACQUITY UPLC BEH C18, 100 × 1 mm, 1.7 µm, 50 °C, 0.3 mL/min, estimated dead time 0.17 min; A: water + 0.1% formic acid + 20 mM ammonium formate; B: methanol + 0.1% formic acid + 20 mM ammonium formate; gradient (min/%B) 0/0 15/100 21/100 22/0 30/0. Conditions: stereoisomer not certain.

SMILES strings stand for the structures.

For `CCc1cccc(CC)c1N(COC)C(=O)C(=O)O` [Alachlor tert-oxanilic acid (OA)], the LC retention time in data set [1] is 15.9 min; in data set [2] it was 15.5 min.

As for `CCOC(=O)CCN(Cc1ccccc1)SN(C)C(=O)ON=C(C)SC` [Alanycarb], the LC retention time was 15.8 min in data set [1] and 15.5 min in data set [2].

`CCCSc1ccc2nc(NC(=O)OC)[nH]c2c1` [Albendazole]: the LC retention time in data set [1] is 14.2 min; in data set [2], 13.1 min.

Regarding `CNC(=O)ON=CC(C)(C)S(C)=O` (centres undefined) [Aldicarb Sulfoxide], the LC retention time in data set [1] is 6.62 min; in data set [2], 6.57 min.

In the case of `CNC(=O)ON=CC(C)(C)SC` [Aldicarb], the LC retention time was 16.4 min in data set [1] and 16.1 min in data set [2].

Consider `COc1cc2nc(N(C)CCCNC(=O)C3CCCO3)nc(N)c2cc1OC` (centres undefined) [Alfuzosin], for which the LC retention time in data set [1] is 12.3 min; in data set [2] it was 9.73 min.

As to `Nc1c(Br)cc(Br)cc1CNC1CCC(O)CC1` (centres undefined) [Ambroxol], the LC retention time was 15.4 min in data set [1] and 10.6 min in data set [2].

As to `CC(=O)OCC(=O)C12OC3(CCCC3)OC1CC1C3CCC4=CC(=O)C=CC4(C)C3(F)C(O)CC12C` (centres undefined) [Amcinonide], the LC retention time was 16 min in data set [1] and 15.6 min in data set [2].

For the compound `CCCCc1oc2ccccc2c1C(=O)c1cc(I)c(OCCN(CC)CC)c(I)c1` [Amiodarone], the values for the LC retention time in data set [1] and in data set [2] were 20.1 min and 16.7 min, respectively.

For `CC[N+]1([O-])CCCC1CNC(=O)c1cc(S(=O)(=O)CC)c(N)cc1OC` (centres undefined) [Amisulpride N-Oxide], the LC retention time was 8.43 min in data set [1] and 8.4 min in data set [2].

Take `CC1(C)SC2C(NC(=O)C(N)c3ccc(O)cc3)C(=O)N2C1C(=O)O` (centres undefined) [Amoxicillin]: the LC retention time in data set [1] was 6.74 min; in data set [2], 5.66 min.

On to `CC(C)(C#N)c1cc(Cn2cncn2)cc(C(C)(C)C#N)c1` [Anastrozole], for which the LC retention time in data set [1] is 11.5 min; in data set [2], 11.3 min.

Take `NCC(O)COc1ccc(CC(N)=O)cc1` (centres undefined) [Atenolol-desisopropyl]: the LC retention time is 5.61 min in data set [1] and 12.3 min in data set [2].

As to `CC(C)NCC(O)COc1ccc(CC(N)=O)cc1` (centres undefined) [Atenolol], the LC retention time in data set [1] is 8.56 min; in data set [2] it was 6.38 min.

For the compound `COP(=O)(OC)SCn1c(=O)oc2cc(Cl)cnc21` [Azamethiphos], the LC retention time in data set [1] is 11.6 min; in data set [2] it was 11.4 min.

Regarding `CN1CCCC(n2nc(Cc3ccc(Cl)cc3)c3ccccc3c2=O)CC1` (centres undefined) [Azelastine], the LC retention time in data set [1] was 16.3 min; in data set [2], 12.9 min.

With `COP(=S)(OC)SCn1nnc2ccccc2c1=O` [Azinphos methyl], the LC retention time is 13.6 min in data set [1] and 13.4 min in data set [2].

For `CCC1OC(=O)C(C)C(OC2CC(C)(OC)C(O)C(C)O2)C(C)C(OC2OC(C)CC(N(C)C)C2O)C(C)(O)CC(C)CN(C)C(C)C(O)C1(C)O` (centres undefined) [Azithromycin], the LC retention time in data set [1] was 17.4 min; in data set [2], 11.2 min.

For `CCOC(=O)CCN(SN(C)C(=O)Oc1cccc2c1OC(C)(C)C2)C(C)C` [Benfuracarb], the LC retention time is 17 min in data set [1] and 16.6 min in data set [2].

For `O=C(Nc1ccccc1)c1ccccc1I` [Benodanil], the LC retention time is 12.9 min in data set [1] and 12.7 min in data set [2].

For the compound `CC(COc1ccccc1Cc1ccccc1)N1CCCCC1` (centres undefined) [Benproperine], the results for the LC retention time in data set [1] and in data set [2] were 18.2 min and 13.1 min, respectively.

As for `CCOC(=O)c1ccc(N)cc1` [Benzocain], the LC retention time was 10.8 min in data set [1] and 10.5 min in data set [2].

For `COc1ccc(C(=O)c2ccccc2)c(O)c1` [Benzophenone-3], the figures for the LC retention time in data set [1] and in data set [2] were 15.3 min and 15 min, respectively.

Take `CN1C2CCC1C(C(=O)O)C(OC(=O)c1ccccc1)C2` (centres undefined) [Benzoylecgonin]: the LC retention time was 11.6 min in data set [1] and 11.5 min in data set [2].

Turning to `COc1ccc(-c2ccccc2)cc1NNC(=O)OC(C)C` [Bifenazate], the LC retention time in data set [1] is 15 min; in data set [2] it was 14.7 min.

As for `c1ccc(-c2ccc(C(c3ccccc3)n3ccnc3)cc2)cc1` (centres undefined) [Bifonazol], the LC retention time in data set [1] is 16.7 min; in data set [2], 13.9 min.

In the case of `CCCCC(CC)COP(=O)(O)OCC(CC)CCCC` (centres undefined) [Bis(2-ethylhexyl)phosphate], the LC retention time in data set [1] and in data set [2] was 17.2 min each time.

On to `O=S(=O)(c1ccc(Cl)cc1)c1ccc(Cl)cc1` [Bis(4-chlorophenyl)sulfone], for which the LC retention time is 12 min in data set [1] and 14.9 min in data set [2].

In the case of `CC(C)NCC(O)COc1ccc(COCCOC(C)C)cc1` (centres undefined) [Bisoprolol], the LC retention time in data set [1] was 13.8 min; in data set [2] it was 11.1 min.

For the compound `CC(C)NCC(O)COc1ccc(C(=O)O)cc1` (centres undefined) [Bisoprolol_M3], the LC retention time is 10.4 min in data set [1] and 6.96 min in data set [2].

For `Oc1ccc(C(c2ccc(O)cc2)(C(F)(F)F)C(F)(F)F)cc1` [Bisphenol AF], the LC retention time in data set [1] is 14.7 min; in data set [2] it was 15.9 min.

Turning to `COc1ccccc1Oc1c(NS(=O)(=O)c2ccc(C(C)(C)C)cc2)nc(-c2ncccn2)nc1OCCO` [Bosentan], the LC retention time in data set [1] is 13.4 min; in data set [2], 14.9 min.

Turning to `COc1cc2c(cc1OC)C13CCN4CC5=CCOC6CC(=O)N2C1C6C5CC43` (centres undefined) [Brucine], the LC retention time is 12.1 min in data set [1] and 8.1 min in data set [2].

As to `CCCC1OC2CC3C4CCC5=CC(=O)C=CC5(C)C4C(O)CC3(C)C2(C(=O)CO)O1` (centres undefined) [Budesonide], the LC retention time in data set [1] is 15.1 min; in data set [2], 14.8 min.

Consider `CC(NC(C)(C)C)C(=O)c1cccc(Cl)c1` (centres undefined) [Bupropion], for which the LC retention time was 15.6 min in data set [1] and 10.5 min in data set [2].

In the case of `C=CCOC(=O)C(C)(C)OC(=O)c1cc(-n2c(=O)cc(C(F)(F)F)n(C)c2=O)ccc1Cl` [Butafenacil], the LC retention time in data set [1] is 15.1 min; in data set [2] it was 14.8 min.

For `CC12CCC(=O)C=C1C=CC1C2CCC2(C)C1CCC21CCC(=O)O1` (centres undefined) [Canrenone], the results for the LC retention time in data set [1] and in data set [2] were 14.5 min and 14.2 min, respectively.

Consider `NC(=O)N1c2ccccc2C2OC2c2ccccc21` (centres undefined) [Carbamazepine-10,11-epoxide], for which the values for the LC retention time in data set [1] and in data set [2] were 11 min and 10.9 min, respectively.

In the case of `CNC(=O)Oc1cccc2c1OC(C)(C)C2` [Carbofuran], the LC retention time in data set [1] is 12 min; in data set [2], 11.8 min.

Regarding `CCOC(=O)C(Cl)Cc1cc(-n2nc(C)n(C(F)F)c2=O)c(F)cc1Cl` (centres undefined) [Carfentrazone-ethyl], the LC retention time in data set [1] is 15.8 min; in data set [2], 15.4 min.

Regarding `CC1C(C)(C)C2=C(C(=O)CCC2)C1(C)C` (centres undefined) [Cashmeran], the LC retention time was 16.6 min in data set [1] and 16.2 min in data set [2].

Consider `CC(=O)c1cc(C(C)(C)C)cc2c1CCC2(C)C` [Celestolide], for which the LC retention time in data set [1] was 17.9 min; in data set [2], 17.5 min.
